According to patent US20250026761A1, “DIAZABICYCLOOCTANE DERIVATIVES USEFUL AS MATRIX METALLOPROTEINASE INHIBITORS” (VASA THERAPEUTICS SPÓLKA Z OGRANICZONA ODPOWIEDZIALNOSCIA, priority 2021, published 2025):
pIC50: −log10 of the molar value.

Assays:
Type in all cases: biochemical
MMP2 = molecular target: T1, MMP2 (Homo sapiens, UniProt P08253); test: MMP-2 colorimetric inhibition assay (Enzo kit); conditions: colorimetric thiopeptide substrate, absorbance 415 nm; read-out: MMP2 IC50 class
T1 construct: purchased Enzo Life Sciences, Inc. BML-AK408
Procedure: (§1) The inhibitory activities of the compounds of the invention were assessed in 96-well microplate format using MMP1, MMP2, MMP9 and MMP13 colorimetric assay kits and TACE fluorometric assay kit from Enzo Life Sciences, Inc. The inhibitory effect of the compounds of the invention on ADAM10 activity were evaluated in 96-well microplate format using fluorometric assay from AnaSpec, Inc.
(§2) The MMP-2 Colorimetric Drug Discovery Kit (catalog #BML-AK408) is a complete assay system designed to screen MMP-2 inhibitors using a thiopeptide as a chromogenic substrate (Ac-PLG-[2-mercapto-4-methylpentanoyl]-LG-OC2H5). The MMP cleavage site peptide bond is replaced by a thioester bond in the thiopeptide. Hydrolysis of this bond by an MMP produces a sulfhydryl group, which reacts with DTNB [5,5′-dithiobis(2-nitrobenzoic acid), Ellman's reagent] to form 2-nitro-5-thiobenzoic acid, that can be detected spectrophotometrically.
(§3) The inhibitory activities of the compounds of the invention against MMP1, MMP2, MMP9 and MMP13 were tested according to the manufacturer's assay protocols and the absorbance at 415 nm was monitored using the Tecan Infinite® 200 Pro F Nano^+ microplate reader.
(§4) The normalized values were analyzed using GraphPadPrism 9 for Windows (GraphPad Software, San Diego, CA, USA) software by plotting inhibition curves and determining the IC50 values.
(§5) The calculated IC50 values were divided into the following classes: • A: <50 nM; B: 50-1000 nM; C: >1000-10,000 nM; D: >10,000 nM

MMP9 = molecular target: T2, MMP9 (Homo sapiens, UniProt P14780); test: MMP-9 colorimetric inhibition assay (Enzo kit); conditions: colorimetric thiopeptide substrate, absorbance 415 nm; read-out: MMP9 IC50 class
T2 construct: purchased Enzo Life Sciences, Inc. BML-AK410
Procedure: as §1
as §2, with “MMP-9” for “MMP-2”, “#BML-AK410)” for “#BML-AK408)”, “screen” for “screen MMP-2”, “inhibitors of matrix metalloproteinase-9” for “inhibitors”
as §3, §4, §5

MMP13 = molecular target: T3, MMP13 (Homo sapiens, UniProt P45452); test: MMP-13 colorimetric inhibition assay (Enzo kit); conditions: colorimetric thiopeptide substrate, absorbance 415 nm; read-out: MMP13 IC50 class
T3 construct: purchased Enzo Life Sciences, Inc. BML-AK412
Procedure: as §1
as §2, with “MMP-13” for “MMP-2”, “#BML-AK412)” for “#BML-AK408)”, “screen” for “screen MMP-2”, “inhibitors of matrix metalloproteinase-13” for “inhibitors”
as §3, §4, §5

T2 sequence (P14780 94-707): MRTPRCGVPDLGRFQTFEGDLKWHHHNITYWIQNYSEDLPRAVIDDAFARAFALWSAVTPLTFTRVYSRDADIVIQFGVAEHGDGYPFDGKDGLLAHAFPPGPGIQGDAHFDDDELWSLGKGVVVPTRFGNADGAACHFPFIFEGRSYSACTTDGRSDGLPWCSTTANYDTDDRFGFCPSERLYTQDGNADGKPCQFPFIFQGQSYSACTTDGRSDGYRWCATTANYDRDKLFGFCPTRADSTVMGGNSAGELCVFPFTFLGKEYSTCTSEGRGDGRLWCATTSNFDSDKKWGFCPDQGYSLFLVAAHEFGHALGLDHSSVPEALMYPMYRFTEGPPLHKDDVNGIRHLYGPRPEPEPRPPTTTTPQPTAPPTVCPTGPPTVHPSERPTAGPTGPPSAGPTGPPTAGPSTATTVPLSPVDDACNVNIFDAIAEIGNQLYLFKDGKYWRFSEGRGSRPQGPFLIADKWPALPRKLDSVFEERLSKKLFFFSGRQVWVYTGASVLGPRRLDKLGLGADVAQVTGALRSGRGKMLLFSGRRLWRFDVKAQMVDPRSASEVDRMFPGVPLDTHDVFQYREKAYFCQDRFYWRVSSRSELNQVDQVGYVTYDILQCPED
T1 sequence (P08253 110-452 limits assumed): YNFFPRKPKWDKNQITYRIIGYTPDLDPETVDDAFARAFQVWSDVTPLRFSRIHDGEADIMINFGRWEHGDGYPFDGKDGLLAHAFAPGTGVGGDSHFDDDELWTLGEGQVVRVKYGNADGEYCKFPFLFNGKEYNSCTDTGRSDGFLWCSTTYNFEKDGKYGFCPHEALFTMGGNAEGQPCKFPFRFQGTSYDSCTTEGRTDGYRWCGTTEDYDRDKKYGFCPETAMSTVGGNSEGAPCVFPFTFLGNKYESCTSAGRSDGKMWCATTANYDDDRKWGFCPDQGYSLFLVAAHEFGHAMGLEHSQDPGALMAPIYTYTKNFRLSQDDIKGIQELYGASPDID

## O=C(CN1CCOCC1)N1CC2CCC(C(=O)NO)(C1)N2S(=O)(=O)c1cc(F)c(Oc2ccc(Cl)cc2)c(F)c1 (centres unmarked) [Example 4, 8-((4-(4-chlorophenoxy)-3,5-difluorophenyl)sulfonyl)-N-hydroxy-3-(2-morpholinoacetyl)-3,8-diazabicyclo[3.2.1]octane-1-carboxamide]
MMP2
  pIC50: 6.00 to 7.30
MMP9
  pIC50: 6.00 to 7.30
MMP13
  pIC50: 5.00 to 6.00

## COCCOC(=O)N1CC2CCC(C(=O)NO)(C1)N2C(=O)c1cc(F)c(Oc2ccc(Cl)cc2)c(F)c1 (centres unmarked) [Example 34, 2-methoxyethyl 8-(4-(4-chlorophenoxy)-3,5-difluorobenzoyl)-1-(hydroxycarbamoyl)-3,8-diazabicyclo[3.2.1]octane-3-carboxylate]
MMP2
  pIC50: < 5.00
MMP9
  pIC50: < 5.00
MMP13
  pIC50: < 5.00

## COCCOC(=O)N1CC2CCC(C(=O)NO)(C1)N2S(=O)(=O)c1cc(F)c(Oc2ccc(Cl)cc2)c(F)c1 (centres unmarked) [Example 1, 2-methoxyethyl 8-((4-(4-chlorophenoxy)-3,5-difluorophenyl)sulfonyl)-1-(hydroxycarbamoyl)-3,8-diazabicyclo[3.2.1]octane-3-carboxylate]
MMP2
  pIC50: 6.00 to 7.30

## COCCOC(=O)N1CC2CCC(C(=O)NO)(C1)N2S(=O)(=O)c1ccc(-c2cccc(F)c2)nc1 (centres unmarked) [Example 9, 2-methoxyethyl 8-((6-(3-fluorophenyl)pyridin-3-yl)sulfonyl)-1-(hydroxycarbamoyl)-3,8-diazabicyclo[3.2.1]octane-3-carboxylate]
MMP2
  pIC50: 6.00 to 7.30
MMP9
  pIC50: 5.00 to 6.00
MMP13
  pIC50: 5.00 to 6.00

## O=C(CCN1CCOCC1)N1CC2CCC(C(=O)NO)(C1)N2S(=O)(=O)c1cc(F)c(Oc2ccc(Cl)cc2)c(F)c1 (centres unmarked) [Example 25, 8-((4-(4-chlorophenoxy)-3,5-difluorophenyl)sulfonyl)-N-hydroxy-3-(3-morpholinopropanoyl)-3,8-diazabicyclo[3.2.1]octane-1-carboxamide]
MMP2
  pIC50: 6.00 to 7.30
MMP9
  pIC50: 6.00 to 7.30

## COCCOC(=O)N1CC2CCC(C(=O)NO)(C1)N2S(=O)(=O)c1ccc(Oc2ccc(C#N)cc2)nc1 (centres unmarked) [Example 18, 2-methoxyethyl 8-((6-(4-cyanophenoxy)pyridin-3-yl)sulfonyl)-1-(hydroxycarbamoyl)-3,8-diazabicyclo[3.2.1]octane-3-carboxylate]
MMP2
  pIC50: 6.00 to 7.30
MMP9
  pIC50: 6.00 to 7.30
MMP13
  pIC50: 6.00 to 7.30

## COCCOC(=O)N1CC2CCC(C(=O)NO)(C1)N2S(=O)(=O)c1ccc(OCc2ccc(F)cc2Cl)cc1 (centres unmarked) [Example 15, 2-methoxyethyl 8-((4-((2-chloro-4-fluorobenzyl)oxy)phenyl)sulfonyl)-1-(hydroxycarbamoyl)-3,8-diazabicyclo[3.2.1]octane-3-carboxylate]
MMP2
  pIC50: < 5.00
MMP9
  pIC50: 5.00 to 6.00
MMP13
  pIC50: 5.00 to 6.00

## O=C(c1ccncc1)N1CC2CCC(C(=O)NO)(C1)N2S(=O)(=O)c1cc(F)c(Oc2ccc(Cl)cc2)c(F)c1 (centres unmarked) [Example 3, 8-((4-(4-chlorophenoxy)-3,5-difluorophenyl)sulfonyl)-N-hydroxy-3-isonicotinoyl-3,8-diazabicyclo[3.2.1]octane-1-carboxamide]
MMP2
  pIC50: 6.00 to 7.30
MMP9
  pIC50: 5.00 to 6.00

## O=C(Cc1ccncc1)N1CC2CCC(C(=O)NO)(C1)N2S(=O)(=O)c1cc(F)c(Oc2ccc(Cl)cc2)c(F)c1 (centres unmarked) [Example 23, 8-((4-(4-chlorophenoxy)-3,5-difluorophenyl)sulfonyl)-N-hydroxy-3-(2-(pyridin-4-yl)acetyl)-3,8-diazabicyclo[3.2.1]octane-1-carboxamide]
MMP2
  pIC50: 6.00 to 7.30
MMP9
  pIC50: 6.00 to 7.30

## COCCOC(=O)N1CC2CCC(C(=O)NO)(C1)N2S(=O)(=O)c1ccc(NC(=O)c2ccc(OC)cc2)cc1 (centres unmarked) [Example 17, 2-methoxyethyl 1-(hydroxycarbamoyl)-8-((4-(4-methoxybenzamido)phenyl)sulfonyl)-3,8-diazabicyclo[3.2.1]octane-3-carboxylate]
MMP2
  pIC50: 6.00 to 7.30
MMP9
  pIC50: 6.00 to 7.30
MMP13
  pIC50: 6.00 to 7.30

## O=C(N1CCCCC1)N1CC2CCC(C(=O)NO)(C1)N2S(=O)(=O)c1cc(F)c(Oc2ccc(Cl)cc2)c(F)c1 (centres unmarked) [Example 6, 8-((4-(4-chlorophenoxy)-3,5-difluorophenyl)sulfonyl)-N-hydroxy-3-(piperidine-1-carbonyl)-3,8-diazabicyclo[3.2.1]octane-1-carboxamide]
MMP2
  pIC50: 6.00 to 7.30
MMP9
  pIC50: 6.00 to 7.30

## COCCOC(=O)N1CC2CCC(C(=O)NO)(C1)N2S(=O)(=O)c1cc(F)c(Oc2ccc(F)cc2)c(F)c1 (centres unmarked) [Example 2, 2-Methoxyethyl 8-((3,5-difluoro-4-(4-fluorophenoxy)phenyl)sulfonyl)-1-(hydroxy-carbamoyl)-3,8-diazabicyclo[3.2.1]octane-3-carboxylate]
MMP2
  pIC50: 6.00 to 7.30
MMP9
  pIC50: 6.00 to 7.30
MMP13
  pIC50: 5.00 to 6.00

## O=C(CN1CCCCC1)N1CC2CCC(C(=O)NO)(C1)N2S(=O)(=O)c1cc(F)c(Oc2ccc(Cl)cc2)c(F)c1 (centres unmarked) [Example 7, 8-((4-(4-chlorophenoxy)-3,5-difluorophenyl)sulfonyl)-N-hydroxy-3-(2-(piperidin-1-yl)acetyl)-3,8-diazabicyclo[3.2.1]octane-1-carboxamide]
MMP2
  pIC50: 6.00 to 7.30
MMP9
  pIC50: 5.00 to 6.00
MMP13
  pIC50: 5.00 to 6.00

## O=C(N1CCOCC1)N1CC2CCC(C(=O)NO)(C1)N2S(=O)(=O)c1cc(F)c(Oc2ccc(Cl)cc2)c(F)c1 (centres unmarked) [Example 24, 8-((4-(4-chlorophenoxy)-3,5-difluorophenyl)sulfonyl)-N-hydroxy-3-(morpholine-4-carbonyl)-3,8-diazabicyclo[3.2.1]octane-1-carboxamide]
MMP2
  pIC50: 6.00 to 7.30
MMP9
  pIC50: 6.00 to 7.30

## O=C(NO)C12CCC(CNC1)N2S(=O)(=O)c1cc(F)c(Oc2ccc(Cl)cc2)c(F)c1 (centres unmarked) [Example 32, 8-((4-(4-chlorophenoxy)-3,5-difluorophenyl)sulfonyl)-N-hydroxy-3,8-diazabicyclo[3.2.1]octane-1-carboxamide]
MMP2
  pIC50: 6.00 to 7.30
MMP9
  pIC50: 5.00 to 6.00

## COCCOC(=O)N1C[C@@H]2CC[C@](C(=O)NO)(C1)N2S(=O)(=O)c1ccc(Oc2ccc(F)cc2)c(F)c1 [Example 31, 2-methoxyethyl (1R,5S)-8-((3-fluoro-4-(4-fluorophenoxy)phenyl)sulfonyl)-1-(hydroxycarbamoyl)-3,8-diazabicyclo[3.2.1]octane-3-carboxylate]
MMP2
  pIC50: > 7.30
MMP9
  pIC50: 6.00 to 7.30

## COCCOC(=O)N1C[C@H]2CC[C@@](C(=O)NO)(C1)N2S(=O)(=O)c1ccc(Oc2ccc(F)cc2)c(F)c1 [Example 30, 2-methoxyethyl (1S,5R)-8-((3-fluoro-4-(4-fluorophenoxy)phenyl)sulfonyl)-1-(hydroxycarbamoyl)-3,8-diazabicyclo[3.2.1]octane-3-carboxylate]
MMP2
  pIC50: 6.00 to 7.30
MMP9
  pIC50: 6.00 to 7.30
